Values joined by “and” are separate entries in the source; they are usually repeats but may differ in a detail not shown here. Equal values may be shown once. Marks after values point to notes of the source that are not given here. Strand notation (5' to 3'): a small letter for the sugar, then the base; units joined by * are phosphorothioate-linked, units joined directly phosphodiester-linked; [ ] holds rarer units or linkages, { } end groups; capitals alone tell only the bases. k = constrained ethyl (cEt); [5mC] = 5-methylcytosine; d = 2'-deoxy (DNA) A value given as a limit tells only on which side of the number the result lay.

Series [1] has as its system Yap1 mRNA. The experiment in a line: Yap1 mRNA in SNU449 cells in combination with sorafenib (Example 48). The series is classed as cell-based, human. Conditions: free uptake, approximately 48 hours. On the procedure: Modified oligonucleotides described in the studies above were tested at various doses in hepatocellular carcinoma cell line SNU449. ION No. 792169, described herein above, was used as a control modified oligonucleotide. ION No. 715487 was used to target Yap1 RNA. […] After approximately 48 hours, Yap1 mRNA levels were measured.
Yap1 mRNA knockdown in tumors was measured by RT-qPCR as previously described using the Human Yap1 primer-probe set RTS4814. Yap1 mRNA levels were normalized to actin-beta content, as measured by primer probe set RTS5002. Results are presented in the tables below as percent control of the amount of Yap1 mRNA relative to PBS treated cells (% control).

Series [2] concerns Yap1 mRNA. Put plainly: Dose-dependent inhibition of human Yap1 in A-431 cells (Example 8, 10,000 cells per well, RTS4814). The series is classed as cell-based. Conditions: for Yap1 mRNA, % UTC: A-431 cells, 10,000 cells per well; for IC50 / % UTC (Yap1 mRNA): A-431 cells. In short, it runs like this:
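A-431 cells (10,000/well) dosed with modified oligonucleotides by free uptake; Yap1 mRNA measured ~48 h later with primer-probe set RTS4814, normalized to total RNA (RIBOGREEN). Values are % of untreated control; IC50 from linear regression on log/linear plot.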

Series [3] relates to Yap1 mRNA. The experiment in a line: Antisense inhibition of human Yap1 in A-431 cells by cEt gapmers, single dose (Example 4, RTS4814). The series is classed as cell-based. The essentials:
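A-431 cells took up 3-10-3 cEt gapmers (16-mer, full phosphorothioate, 5-methylcytosines) by free uptake at 2,000 nM for about 48 h. Yap1 mRNA was quantified by qRT-PCR, normalized to total RNA (RIBOGREEN), and reported as % of untreated control.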

For series [4], the system named is SNU449 xenograft tumor. Put plainly: Tumor volume in SNU449 xenograft tumor model, alone and in combination with sorafenib (second Example 30). The series is classed as in vivo, human. The note with it: SNU449 xenograft, oligonucleotide 50 mg/kg, sorafenib 30 mg/kg orally. The method, then: Modified oligonucleotides described in the studies above were tested in a hepatocellular carcinoma SNU449 xenograft tumor model. […] A control oligonucleotide 792169, described herein above, was also tested.
Five million SNU449 cells in 30% matrigel were implanted subcutaneously into the fatpads of female NOD.Cg-Prkdcscid II2rgtmlWjl/SzJ mice (from Jackson Laboratory) at 4-6 weeks of age. 43 days post implantation (when tumors had reached approximately 100 mm^3 in size), groups of eight mice each were administered with 50 mg/kg modified oligonucleotide daily for 10 days (loading dose), following which they were administered with 50 mg/kg modified oligonucleotide four times a week for one week, following which they were dosed with 50 mg/kg modified oligonucleotide thrice weekly until the end of the study. […] Animals were sacrificed, and tumors were collected on day 119 post implantation.
Tumor volumes were also measured at the indicated days in the table below.
(Xenograft models place foreign cells or tissue in a host animal.)

Where [5] appears, read: oligonucleotide at 0.04 uM, sorafenib 0 uM.
Setting [6] is: oligonucleotide at 0.04 uM, sorafenib 0.37 uM.
Setting [7] is: oligonucleotide at 0.04 uM, sorafenib 3.33 uM.
Where [8] appears, read: oligonucleotide at 0.04 uM, sorafenib 10 uM.
[9] abbreviates: oligonucleotide at 0.04 uM, sorafenib […].
Where [10] appears, read: oligonucleotide at 0.2 uM, sorafenib 0 uM.
[11] abbreviates: oligonucleotide at 0.2 uM, sorafenib 0.37 uM.
Where [12] appears, read: oligonucleotide at 0.2 uM, sorafenib 3.33 uM.
The mark [13] stands for this setting: oligonucleotide at 0.2 uM, sorafenib 10 uM.
Where [14] appears, read: oligonucleotide at 0.2 uM, sorafenib […].
The mark [15] stands for this setting: oligonucleotide at 1 uM, sorafenib 0 uM.
Where [16] appears, read: oligonucleotide at 1 uM, sorafenib 0.37 uM.
[17] abbreviates: oligonucleotide at 1 uM, sorafenib 3.33 uM.
Setting [18] is: oligonucleotide at 1 uM, sorafenib 10 uM.
Setting [19] is: oligonucleotide at 1 uM, sorafenib […].
Where [20] appears, read: oligonucleotide at 5 uM, sorafenib 0 uM.
The mark [21] stands for this setting: oligonucleotide at 5 uM, sorafenib 0.37 uM.
Setting [22] is: oligonucleotide at 5 uM, sorafenib 3.33 uM.
Setting [23] is: oligonucleotide at 5 uM, sorafenib 10 uM.
Setting [24] is: oligonucleotide at 5 uM, sorafenib […].

As for “715487 (kA*kT*kT*dA*d[5mC]*dT*dT*d[5mC]*dA*dT*dA*dG*d[5mC]*kT*kT*kA) [compound 715487]”, the “YAP1 mRNA” value in series [1] (setting [5]) was determined as 98 % control; in series [1] (setting [6]), 97 % control; in series [1] (setting [7]), 83 % control; in series [1] (setting [8]) it was 78 % control; in series [1] (setting [9]), 77 % control; in series [1] (setting [10]), 54 % control. Besides, the “YAP1 mRNA” value came to 51 % control in series [1] (setting [11]); 45 % control in series [1] (setting [12]); 46 % control in series [1] (setting [13]); 44 % control in series [1] (setting [14]); 30 % control in series [1] (setting [15]); 23 % control in series [1] (setting [16]). In addition, the “YAP1 mRNA” value in series [1] (setting [17]) was 21 % control; in series [1] (setting [18]) it was 20 % control; in series [1] (setting [19]) it was 22 % control; in series [1] (setting [20]), 9 % control; in series [1] (setting [21]), 8 % control; in series [1] (setting [22]) it was 7 % control. For the same substance, the “YAP1 mRNA” value in series [1] (setting [23]) is given as 8 % control; in series [1] (setting [24]) it was 7 % control.
“1076453 (GTAATATTGCAATCTG; 3-10-3 cEt gapmer, further chemistry not given here) [compound 1076453]”: the “Yap1 mRNA, % UTC” value in series [2] (31.3 nM, free uptake, approximately 48 hours, RTS4814) turned out to be 11 % UTC; in series [2] (125.0 nM, free uptake, approximately 48 hours, RTS4814) it was 2 % UTC; in series [2] (500.0 nM, free uptake, approximately 48 hours, RTS4814) it was 1 % UTC; in series [2] (2000.00 nM, free uptake, approximately 48 hours, RTS4814), 2 % UTC. The same substance yielded an IC50 in series [2] (free uptake, approximately 48 hours, RTS4814, linear regression on log/linear plot) of under 20 nM.
“958499 (ATTAGAGTATGTGGCA; 3-10-3 cEt gapmer, further chemistry not given here) [compound 958499]”: the “% UTC (Yap1 mRNA)” value is 36 % UTC and 37 % UTC in series [2] (31.3 nM); 5 % UTC and 4 % UTC in series [2] (125.0 nM); 2 % UTC in series [2] (500.0 nM); 2 % UTC in series [2] (2000.00 nM). The IC50 in series [2] (Yap1 mRNA) is under 20 nM. Further, the “YAP1 (% UTC)” value turned out to be 1 % UTC in series [3] (Yap1 mRNA remaining as percent of untreated control, 3-10-3 cEt gapmers, A-431 cells, Table 36) and 2 % UTC in series [3] (Yap1 mRNA remaining as percent of untreated control, 3-10-3 cEt gapmers, A-431 cells, Table 37).
Regarding “958499 (kA*kT*kT*dA*dG*dA*dG*dT*dA*dT*dG*dT*dG*kG*k[5mC]*kA) [Compound 958499]”, the “YAP1 (% UTC)” value stood at 2 % UTC in series [3] (Table 14, A-431 cells, 5,000 cells per well, free uptake, 2,000 nM, approximately 48 hours, RTS4814, normalized to RIBOGREEN, Yap1 mRNA relative to untreated control, * = targets amplicon region of primer probe set); 1 % UTC in series [3] (Table 15, A-431 cells, 5,000 cells per well, free uptake, 2,000 nM, approximately 48 hours, RTS4814, normalized to RIBOGREEN, Yap1 mRNA relative to untreated control, * = targets amplicon region of primer probe set); 2 % UTC in series [3] (Table 16, A-431 cells, 5,000 cells per well, free uptake, 2,000 nM, approximately 48 hours, RTS4814, normalized to RIBOGREEN, Yap1 mRNA relative to untreated control cells); 3 % UTC in series [3] (Table 17, A-431 cells, 5,000 cells per well, free uptake, 2,000 nM, approximately 48 hours, RTS4814, normalized to RIBOGREEN, Yap1 mRNA relative to untreated control cells).
Regarding “CGCCGATAAGGTACAC (cEt gapmer, phosphorothioate backbone, further chemistry not given here) [ION 792169, reference compound]”, the “Average Tumor Volume” value in series [4] (day 43 post tumor implantation) worked out at 111 mm^3; in series [4] (day 46 post tumor implantation) it was 162 mm^3; in series [4] (day 50 post tumor implantation), 180 mm^3; in series [4] (day 53 post tumor implantation), 247 mm^3; in series [4] (day 57 post tumor implantation), 280 mm^3; in series [4] (day 60 post tumor implantation), 317 mm^3. The “Average Tumor Volume” value in series [4] (day 64 post tumor implantation) is 397 mm^3; in series [4] (day 67 post tumor implantation), 466 mm^3; in series [4] (day 71 post tumor implantation) it was 519 mm^3; in series [4] (day 75 post tumor implantation), 559 mm^3; in series [4] (day 78 post tumor implantation), 634 mm^3; in series [4] (day 81 post tumor implantation), 681 mm^3. Moreover, the “Average Tumor Volume” value was determined as 785 mm^3 in series [4] (day 85 post tumor implantation); 889 mm^3 in series [4] (day 88 post tumor implantation); 1170 mm^3 in series [4] (day 92 post tumor implantation); 1215 mm^3 in series [4] (day 94 post tumor implantation); 1355 mm^3 in series [4] (day 98 post tumor implantation); 1417 mm^3 in series [4] (day 101 post tumor implantation). Besides, the “Average Tumor Volume” value is listed as 1509 mm^3 in series [4] (day 105 post tumor implantation), 1571 mm^3 in series [4] (day 108 post tumor implantation) and 1697* mm^3 in series [4] (day 119 post tumor implantation). Further, the “YAP1 mRNA” value amounted to 115 % control in series [1] (setting [5]); 97 % control in series [1] (setting [6]); 99 % control in series [1] (setting [7]); 102 % control in series [1] (setting [8]); 100 % control in series [1] (setting [9]); 113 % control in series [1] (setting [10]). In addition, the “YAP1 mRNA” value was determined as 96 % control in series [1] (setting [11]); 91 % control in series [1] (setting [12]); 94 % control in series [1] (setting [13]); 97 % control in series [1] (setting [14]); 103 % control in series [1] (setting [15]); 99 % control in series [1] (setting [16]). The “YAP1 mRNA” value in series [1] (setting [17]) is on record as 92 % control; in series [1] (setting [18]) it was 93 % control; in series [1] (setting [19]) it was 93 % control; in series [1] (setting [20]), 103 % control; in series [1] (setting [21]) it was 104 % control; in series [1] (setting [22]) it was 97 % control. The “YAP1 mRNA” value in series [1] (setting [23]) was 97 % control; in series [1] (setting [24]) it was 95 % control.

In general, IC50 refers to the concentration that gives 50% inhibition.
